Measured values from PubChem BioAssay AID1919005 (Molecular Pharmacology Branch, DTP, NCI, 2023).
pIC50: −log10 of the molar value. Where “and” joins values, the source holds several entries; their conditions need not be identical. Equal entries are not always repeated.

Tested on: 855422-203-R-J1-PDC complex spheroid growth
Experiment: Anticancer human tumor 855422-203-R-J1-PDC patient-derived bladder carcinoma cell line growth inhibition [AhR]
Conditions: for viability, T/C: stronger effect = lower value
Description: Multicellular complex tumor spheroid response to aryl hydrocarbon receptor antagonists in combination with a variety of drugs and investigational agents in selected tumor cell lines
The current study was undertaken to assess response to aryl hydrocarbon receptor antagonists in combination with standard-of-care drugs and investigational agents in solid tumor complex spheroid models. Complex spheroids include a stromal component modeled by human endothelial cells (HUVEC) and fibroblasts modeled by human mesenchymal stem cells (MSCs). The concentration ranges selected for each drug and investigational agent were based upon clinically achievable concentrations if the clinical Cmax of the agent was known.
Compounds. The drugs and investigational agents: BAY 2416964 (NSC825713), GNF351 (NSC835774), CH-223191 (NSC835775), CPI-455 (NSC825282), aza-TdCyd (NSC777586), decitabine (NSC127716), belinostat (NSC758774), entinostat (NSC756642), pevonedistat (NSC761192), tazemetostat (NSC777109), talazoparib (NSC765396), olaparib (NSC753686), selinexor (NSC780203), nedisertib (M3814, NSC802822), bortezomib (NSC756655), venetoclax (NSC766270), doxorubicin (NSC123127), elimusertib (BAY189344, NSC800525), ceralasertib (AZD6738, NSC777638), TAK-243 (NSC785004), alisertib (NSC759677), etoposide (NSC141540), topotecan (NSC609699), eribulin (NSC707389), gemcitabine (NSC613327), carboplatin (NSC241240), cisplatin (NSC119875), and SN-38 (NSC673596) were obtained from the National Cancer Institute (NCI) Developmental Therapeutics Program Chemical Repository (32). The FDA-approved anticancer drug set is available from the Developmental Therapeutics Program at https://dtp.cancer.gov/organization/dscb/obtaining/available plates.htm. […] The stock solutions were prepared in dimethyl sulfoxide (DMSO, Sigma-Aldrich, St. Louis, MO, cat. D2650), except for the platinum compounds which were prepared in saline (Quality Biological, Gaithersburg, MD, cat. 114-055-101), at 800-fold the tested concentration and stored at -70 degrees C prior to their use. All drugs and investigational agents were tested over a range starting from a high concentration at or near the clinical Cmax and decreasing in half-log increments. If the clinical Cmax for an agent had not been determined, the highest concentration tested was 10 microM (Table 1).
Cell Culture. All cells were maintained in an incubator at 37 degrees C and 5% CO2 with 95% humidity. The PDC lines were cultured according to standard operating procedures established by the NCI PDMR (https://pdmr.cancer.gov). Briefly, all PDCs were thawed and cultured in Matrigel-coated flasks prepared with a working solution of 1X Ham's F-12 nutrient mix, without supplementation (Invitrogen, Waltham, MA, cat. 11765054), 100 U/mL penicillin-streptomycin (Invitrogen, cat. 15140122), and 2.5% Matrigel (Corning Inc., Corning, NY, cat. 354248) for the first three passages. All PDCs were cultured in complete DMEM/F-12 media containing advanced DMEM/F-12 (Invitrogen, cat. 12634028), 4.9% defined fetal bovine serum, heat inactivated (HyClone Laboratories Inc., Logan, UT, cat. SH30070.03HI), 389 ng/mL hydrocortisone (Sigma-Aldrich, cat. H4001), 9.7 ng/mL human EGF recombinant protein (Invitrogen, cat. PHG0313), 23.4 microg/mL adenine (Sigma-Aldrich, cat. A2786), 97.3 U/mL penicillin-streptomycin (Invitrogen, cat. 15140122), 1.9 mM L-glutamine (Invitrogen, cat. 25030081), and 9.7 microM Y-27632 dihydrochloride (Tocris Bioscience, Bristol, United Kingdom, cat. 1254). The PDCs were cultured in complete DMEM/F12 media without 10 microM Y-27632 dihydrochloride for at least two passages prior to the screen. The established cell lines NCI-H1341 and […] were cultured in DMEM/F-12, HEPES (Invitrogen, cat. 11330032), 5% defined fetal bovine serum (HyClone Laboratories Inc., cat. SH30070.03), ITS premix universal culture supplement [insulin (5 microg/mL), transferrin (5 microg/mL), and selenious acid (5 ng/mL)] […]

[1] = curve of first compound, second compound 0.1 µM
[2] = curve of first compound, second compound 0.316 µM
[3] = curve of first compound, second compound 1 µM
[4] = curve of first compound, second compound 3.16 µM
[5] = curve of first compound, second compound 10 µM
[6] = second compound 0.1 µM, first compound 0.00949 µM
[7] = second compound 0.1 µM, first compound 0.03 µM
[8] = second compound 0.1 µM, first compound 0.0949 µM
[9] = second compound 0.1 µM, first compound 0.3 µM
[10] = second compound 0.316 µM, first compound 0.00949 µM
[11] = second compound 0.316 µM, first compound 0.03 µM
[12] = second compound 0.316 µM, first compound 0.0949 µM
[13] = second compound 0.316 µM, first compound 0.3 µM
[14] = second compound 1 µM, first compound 0.00949 µM
[15] = second compound 1 µM, first compound 0.03 µM
[16] = second compound 1 µM, first compound 0.0949 µM
[17] = second compound 1 µM, first compound 0.3 µM
[18] = second compound 3.16 µM, first compound 0.00949 µM
[19] = second compound 3.16 µM, first compound 0.03 µM
[20] = second compound 3.16 µM, first compound 0.0949 µM
[21] = second compound 3.16 µM, first compound 0.3 µM
[22] = second compound 10 µM, first compound 0.00949 µM
[23] = second compound 10 µM, first compound 0.03 µM
[24] = second compound 10 µM, first compound 0.0949 µM
[25] = second compound 10 µM, first compound 0.3 µM
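Also: spheroids exposed to agents for seven days before readout.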
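For viability, T/C in this document: percent of DMSO vehicle control luminescence viability.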

O=C(C=Cn1cnc(-c2cc(C(F)(F)F)cc(C(F)(F)F)c2)n1)NNc1cnccn1 + CC(CO)NC(=O)c1cc(-c2ccc(Cl)cc2)nn(-c2cnn(C)c2)c1=O
pIC50 [1]: 6.39
pIC50 [2]: 6.55
pIC50 [3]: 6.49
pIC50 [4]: 6.56
pIC50 [5]: 6.59
viability, T/C [6]: 106%
viability, T/C [7]: 124%
viability, T/C [8]: 141%
viability, T/C [9]: 55.2%
viability, T/C (second compound 0.1 µM, first compound 0.949 µM): 40.1%
viability, T/C (second compound 0.1 µM, first compound 3 µM): 32.1%
viability, T/C [10]: 112%
viability, T/C [11]: 125%
viability, T/C [12]: 149%
viability, T/C [13]: 44.6%
viability, T/C (second compound 0.316 µM, first compound 0.949 µM): 36.8%
viability, T/C (second compound 0.316 µM, first compound 3 µM): 33%
viability, T/C [14]: 121%
viability, T/C [15]: 136%
viability, T/C [16]: 159%
viability, T/C [17]: 51.1%
viability, T/C (second compound 1 µM, first compound 0.949 µM): 37.8%
viability, T/C (second compound 1 µM, first compound 3 µM): 31.1%
viability, T/C [18]: 108%
viability, T/C [19]: 123%
viability, T/C [20]: 152%
viability, T/C [21]: 43.4%
viability, T/C (second compound 3.16 µM, first compound 0.949 µM): 41.1%
viability, T/C (second compound 3.16 µM, first compound 3 µM): 28.6%
viability, T/C [22]: 100%
viability, T/C [23]: 134%
viability, T/C [24]: 144%
viability, T/C [25]: 39.2%
viability, T/C (second compound 10 µM, first compound 0.949 µM): 33.6%
viability, T/C (second compound 10 µM, first compound 3 µM): 31.1%

O=C(c1cc(Cc2n[nH]c(=O)c3ccccc23)ccc1F)N1CCN(C(=O)C2CC2)CC1
viability, T/C (compound 0.0316 µM): 99% and 105% and 111%
viability, T/C (compound 0.1 µM): 112% and 105% and 129%
viability, T/C (compound 0.316 µM): 111% and 99% and 105%
viability, T/C (compound 1 µM): 105% and 98.5% and 116%
viability, T/C (compound 3.16 µM): 114% and 103% and 106%
viability, T/C (compound 10 µM): 87.1% and 93.6% and 102%
pIC50 (curve of compound): < 5.00

CCc1c2c(nc3ccc(O)cc13)-c1cc3c(c(=O)n1C2)COC(=O)[C@]3(O)CC + CC(CO)NC(=O)c1cc(-c2ccc(Cl)cc2)nn(-c2cnn(C)c2)c1=O
pIC50 [1]: 8.28
pIC50 [2]: 8.35
pIC50 [3]: 8.47
pIC50 [4]: 8.72
pIC50 [5]: 8.83
viability, T/C (second compound 0.1 µM, first compound 0.000949 µM): 95.5%
viability, T/C (second compound 0.1 µM, first compound 0.003 µM): 78.9%
viability, T/C [6]: 19.4%
viability, T/C [7]: 13.2%
viability, T/C [8]: 9.5%
viability, T/C [9]: 6.28%
viability, T/C (second compound 0.316 µM, first compound 0.000949 µM): 85.6%
viability, T/C (second compound 0.316 µM, first compound 0.003 µM): 68.7%
viability, T/C [10]: 15.6%
viability, T/C [11]: 12.3%
viability, T/C [12]: 6.86%
viability, T/C [13]: 4.21%
viability, T/C (second compound 1 µM, first compound 0.000949 µM): 86.5%
viability, T/C (second compound 1 µM, first compound 0.003 µM): 54.7%
viability, T/C [14]: 13.9%
viability, T/C [15]: 11%
viability, T/C [16]: 6.82%
viability, T/C [17]: 4.24%
viability, T/C (second compound 3.16 µM, first compound 0.000949 µM): 72.2%
viability, T/C (second compound 3.16 µM, first compound 0.003 µM): 36.3%
viability, T/C [18]: 12.8%
viability, T/C [19]: 10.2%
viability, T/C [20]: 6.61%
viability, T/C [21]: 4.22%
viability, T/C (second compound 10 µM, first compound 0.000949 µM): 65.5%
viability, T/C (second compound 10 µM, first compound 0.003 µM): 25.4%
viability, T/C [22]: 12.6%
viability, T/C [23]: 9.84%
viability, T/C [24]: 6.11%
viability, T/C [25]: 4.31%

Nc1ccccc1NC(=O)c1ccc(CNC(=O)OCc2cccnc2)cc1 + Cc1cncc(-c2nc(NCCc3c[nH]c4ccccc34)c3ncn(C(C)C)c3n2)c1
pIC50 [1]: 5.58
pIC50 [2]: 5.64
pIC50 [3]: 5.70
pIC50 [4]: 6.32
pIC50 [5]: > 7.50
viability, T/C (second compound 0.1 µM, first compound 0.0316 µM): 88.7%
viability, T/C (second compound 0.1 µM, first compound 0.1 µM): 81.7%
viability, T/C (second compound 0.1 µM, first compound 0.316 µM): 76.4%
viability, T/C (second compound 0.1 µM, first compound 1 µM): 74.3%
viability, T/C (second compound 0.1 µM, first compound 3.16 µM): 45.2%
viability, T/C (second compound 0.1 µM, first compound 10 µM): 5.46%
viability, T/C (second compound 0.316 µM, first compound 0.0316 µM): 86.9%
viability, T/C (second compound 0.316 µM, first compound 0.1 µM): 83.7%
viability, T/C (second compound 0.316 µM, first compound 0.316 µM): 69.5%
viability, T/C (second compound 0.316 µM, first compound 1 µM): 76.4%
viability, T/C (second compound 0.316 µM, first compound 3.16 µM): 40.7%
viability, T/C (second compound 0.316 µM, first compound 10 µM): 5.76%
viability, T/C (second compound 1 µM, first compound 0.0316 µM): 88.7%
viability, T/C (second compound 1 µM, first compound 0.1 µM): 87.9%
viability, T/C (second compound 1 µM, first compound 0.316 µM): 78.2%
viability, T/C (second compound 1 µM, first compound 1 µM): 73.9%
viability, T/C (second compound 1 µM, first compound 3.16 µM): 35.4%
viability, T/C (second compound 1 µM, first compound 10 µM): 4.53%
viability, T/C (second compound 3.16 µM, first compound 0.0316 µM): 82.2%
viability, T/C (second compound 3.16 µM, first compound 0.1 µM): 73.8%
viability, T/C (second compound 3.16 µM, first compound 0.316 µM): 63.9%
viability, T/C (second compound 3.16 µM, first compound 1 µM): 26.4%
viability, T/C (second compound 3.16 µM, first compound 3.16 µM): 22.1%
viability, T/C (second compound 3.16 µM, first compound 10 µM): 5.42%
viability, T/C (second compound 10 µM, first compound 0.0316 µM): 7.49%
viability, T/C (second compound 10 µM, first compound 0.1 µM): 5.93%
viability, T/C (second compound 10 µM, first compound 0.316 µM): 0.88%
viability, T/C (second compound 10 µM, first compound 1 µM): 0.3%
viability, T/C (second compound 10 µM, first compound 3.16 µM): 0.17%
viability, T/C (second compound 10 µM, first compound 10 µM): 0.17%
